One experiment concerns the target T1, MLLT1 (Homo sapiens, UniProt Q03111).
T1 construct: host or cells: MV4-11
T1 sequence (Q03111 1-559): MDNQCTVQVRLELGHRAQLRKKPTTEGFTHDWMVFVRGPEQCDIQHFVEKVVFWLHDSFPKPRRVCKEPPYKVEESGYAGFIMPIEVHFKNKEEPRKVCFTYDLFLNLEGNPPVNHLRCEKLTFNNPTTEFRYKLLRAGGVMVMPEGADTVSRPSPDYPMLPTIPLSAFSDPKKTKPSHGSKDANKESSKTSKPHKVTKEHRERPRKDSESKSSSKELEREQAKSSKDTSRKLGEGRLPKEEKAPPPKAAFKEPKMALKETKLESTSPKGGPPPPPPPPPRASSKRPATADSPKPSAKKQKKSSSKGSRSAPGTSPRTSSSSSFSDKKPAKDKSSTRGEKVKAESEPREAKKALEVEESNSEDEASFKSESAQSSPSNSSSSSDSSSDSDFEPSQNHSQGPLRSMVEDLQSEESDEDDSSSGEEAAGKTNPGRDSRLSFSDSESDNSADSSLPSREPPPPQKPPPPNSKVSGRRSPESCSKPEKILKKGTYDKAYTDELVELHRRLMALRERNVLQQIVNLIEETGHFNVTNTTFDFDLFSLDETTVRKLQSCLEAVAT
The experiment in a line: MLLT1 degradation assay in MV4-11 cells (JESS chemiluminescent detection), three concentrations, 24 h. Format: cell-based. The settings on record: with respect to DMSO control. In a few lines: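 Read-out is % MLLT1 degradation versus DMSO, from band peak areas on a JESS chemiluminescent system. Cells (MV4-11) were exposed for 24 h at 37° C to three compound levels, 10, 100 and 1000 nM, in 0.1% DMSO.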

A further experiment deals with MV4-11 cells. Nature of the experiment: MV4-11 cellular proliferative assay, Assay Format B (CTG 2.0, 168 h). Format: cell-based. As to conditions: Homo sapiens, 168 h (7 days), CTG 2.0, read-out: IC50 (MV4-11 cellular proliferative assay, Assay format B). In a few lines:
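Viability read by CellTiter-Glo 2.0 luminescence after 7-day (168 h) compound exposure of MV4-11 cells in IMDM/10% FBS. Ten 3-fold concentrations starting at 1 uM or 100 nM, 0.3% final DMSO; curves normalised to DMSO control, four-parameter fit.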

Molecules are shown by their SMILES. Some results are limits rather than exact numbers.

For the molecule `C[C@@H]1CN(CC2CCN(c3cccc4c3CN(C3CCC(=O)NC3=O)C4=O)CC2)CCN1c1ccc(C(=O)Nc2cc3[nH]c([C@H]4CCCN4C)cc3cn2)cn1` (stereo partly drawn) [Example 163, 6-((2R)-4-((1-(2-(2,6-dioxopiperidin-3-yl)-1-oxoisoindolin-4-yl)piperidin-4-yl)methyl)-2-methylpiperazin-1-yl)-N-(2-((R)-1-methylpyrrolidin-2-yl)-1H-pyrrolo[3,2-c]pyridin-6-yl)nicotinamide], at MLLT1, the “MLLT1% Degradation @ 0.01 μM” value is “A (Category A: A ≥ 75% degradation)”, the “MLLT1% Degradation @ 0.1 μM” value was “A (Category A: A ≥ 75% degradation)” and the “MLLT1% Degradation @ 1 μM” value was “A (Category A: A ≥ 75% degradation)”. Also, the concentration for half-maximal inhibition (IC50) with MV4-11 cells is not above 0.1 µM.

With `CN1CCC[C@@H]1c1cc2cnc(NC(=O)c3ccc(N4CCC(CN5CCN(c6cccc7c6CN(C6CCC(=O)NC6=O)C7=O)CC5)CC4)nc3)cc2[nH]1` (stereo partly drawn) [Example 168, 6-(4-((4-(2-(2,6-dioxopiperidin-3-yl)-1-oxoisoindolin-4-yl)piperazin-1-yl)methyl)piperidin-1-yl)-N-(2-((R)-1-methylpyrrolidin-2-yl)-1H-pyrrolo[3,2-c]pyridin-6-yl)nicotinamide], at MLLT1, the “MLLT1% Degradation @ 0.01 μM” value is recorded as “A (Category A: A ≥ 75% degradation)”, the “MLLT1% Degradation @ 0.1 μM” value was “A (Category A: A ≥ 75% degradation)” and the “MLLT1% Degradation @ 1 μM” value is listed as “A (Category A: A ≥ 75% degradation)”. Besides, the IC50 in the experiment on MV4-11 cells was not above 0.1 µM.

As to `CN1CCC[C@@H]1c1cc2cnc(NC(=O)c3ccc(OCCC4CCN(c5cccc6c5CN(C5CCC(=O)NC5=O)C6=O)CC4)c(F)c3F)cc2[nH]1` (stereo partly drawn) [Example 231, 4-(2-(1-(2-(2,6-dioxopiperidin-3-yl)-1-oxoisoindolin-4-yl)piperidin-4-yl)ethoxy)-2,3-difluoro-N-(2-((R)-1-methylpyrrolidin-2-yl)-1H-pyrrolo[3,2-c]pyridin-6-yl)benzamide], on MLLT1, the “MLLT1% Degradation @ 0.01 μM” value is given as “A (Category A: A ≥ 75% degradation)”, the “MLLT1% Degradation @ 0.1 μM” value is listed as “A (Category A: A ≥ 75% degradation)” and the “MLLT1% Degradation @ 1 μM” value is on record as “A (Category A: A ≥ 75% degradation)”. The half-maximal inhibitory concentration (IC50) in the experiment on MV4-11 cells was not above 0.1 µM.

Regarding `CN1CCC[C@@H]1c1cc2cnc(NC(=O)c3ccc(N4CCC(C#Cc5cccc6c5CN(C5CCC(=O)NC5=O)C6=O)CC4)nc3)cc2[nH]1` (stereo partly drawn) [Example 17, 6-(4-((2-(2,6-dioxopiperidin-3-yl)-1-oxoisoindolin-4-yl)ethynyl)piperidin-1-yl)-N-(2-((R)-1-methylpyrrolidin-2-yl)-1H-pyrrolo[3,2-c]pyridin-6-yl)nicotinamide], on MLLT1, the “MLLT1% Degradation @ 0.01 μM” value is “A (Category A: A ≥ 75% degradation)”, the “MLLT1% Degradation @ 0.1 μM” value was “A (Category A: A ≥ 75% degradation)” and the “MLLT1% Degradation @ 1 μM” value was “A (Category A: A ≥ 75% degradation)”. In the experiment with MV4-11 cells, the IC50 is not above 0.1 µM.

With `CN1CCC[C@@H]1c1cc2cnc(NC(=O)c3ccc(CCCN4CCN(c5cccc6c5CN(C5CCC(=O)NC5=O)C6=O)CC4)cc3)cc2[nH]1` (stereo partly drawn) [Example 131, 4-(3-(4-(2-(2,6-dioxopiperidin-3-yl)-1-oxoisoindolin-4-yl)piperazin-1-yl)propyl)-N-(2-((R)-1-methylpyrrolidin-2-yl)-1H-pyrrolo[3,2-c]pyridin-6-yl)benzamide], at MLLT1, the “MLLT1% Degradation @ 0.01 μM” value is reported as “B (Category B: 50% ≤ B < 75% degradation)”, the “MLLT1% Degradation @ 0.1 μM” value is recorded as “A (Category A: A ≥ 75% degradation)” and the “MLLT1% Degradation @ 1 μM” value was “A (Category A: A ≥ 75% degradation)”. Besides, in the experiment on MV4-11 cells, the IC50 is not above 0.1 µM.

As to `C[C@@H]1CN(CC2CCN(c3cccc4c3CN(C3CCC(=O)NC3=O)C4=O)CC2)CCN1c1ccc(C(=O)Nc2cc3[nH]c([C@H]4CCCN4C)cc3cn2)cc1` (mixture of isomers) [Example 133, 4-((2R)-4-((1-(2-(2,6-dioxopiperidin-3-yl)-1-oxoisoindolin-4-yl)piperidin-4-yl)methyl)-2-methylpiperazin-1-yl)-N-(2-((R)-1-methylpyrrolidin-2-yl)-1H-pyrrolo[3,2-c]pyridin-6-yl)benzamide], on MLLT1, the “MLLT1% Degradation @ 0.01 μM” value is recorded as “A (Category A: A ≥ 75% degradation)”, the “MLLT1% Degradation @ 0.1 μM” value is on record as “A (Category A: A ≥ 75% degradation)” and the “MLLT1% Degradation @ 1 μM” value is reported as “A (Category A: A ≥ 75% degradation)”. In the experiment with MV4-11 cells, the 50% inhibitory concentration (IC50) is not above 0.1 µM.

With `CN1CCC[C@@H]1c1cc2cnc(NC(=O)c3ccc(OCCN4CCC5(CC4)CCN(c4cccc6c4CN(C4CCC(=O)NC4=O)C6=O)CC5)cc3)cc2[nH]1` (stereo partly drawn) [Example 165, 4-(2-(9-(2-(2,6-dioxopiperidin-3-yl)-1-oxoisoindolin-4-yl)-3,9-diazaspiro[5.5]undecan-3-yl)ethoxy)-N-(2-((R)-1-methylpyrrolidin-2-yl)-1H-pyrrolo[3,2-c]pyridin-6-yl)benzamide], on MLLT1, the “MLLT1% Degradation @ 0.01 μM” value is given as “A (Category A: A ≥ 75% degradation)”, the “MLLT1% Degradation @ 0.1 μM” value is “A (Category A: A ≥ 75% degradation)” and the “MLLT1% Degradation @ 1 μM” value was “A (Category A: A ≥ 75% degradation)”. Moreover, the IC50 in the experiment with MV4-11 cells was not above 0.1 µM.

`CN1CCC[C@@H]1c1cc2cnc(NC(=O)c3ccc(-c4cnn(CCCC5CCN(c6cccc7c6CN(C6CCC(=O)NC6=O)C7=O)CC5)c4)cc3F)cc2[nH]1` (stereo partly drawn) [Example 212, 4-(1-(3-(1-(2-(2,6-dioxopiperidin-3-yl)-1-oxoisoindolin-4-yl)piperidin-4-yl)propyl)-1H-pyrazol-4-yl)-2-fluoro-N-(2-((R)-1-methylpyrrolidin-2-yl)-1H-pyrrolo[3,2-c]pyridin-6-yl)benzamide]: at MLLT1, the “MLLT1% Degradation @ 0.01 μM” value is reported as “A (Category A: A ≥ 75% degradation)”, the “MLLT1% Degradation @ 0.1 μM” value is given as “A (Category A: A ≥ 75% degradation)” and the “MLLT1% Degradation @ 1 μM” value is given as “A (Category A: A ≥ 75% degradation)”. Further, the IC50 in the experiment with MV4-11 cells was not above 0.1 µM.

In the case of `CN1CCC[C@@H]1c1cc2cnc(NC(=O)c3ccc(CCCC4CCN(c5cccc6c5CN([C@H]5CCC(=O)NC5=O)C6=O)CC4)cc3F)cc2[nH]1` (relative stereo) [Example 175, 4-(3-(1-(2-((rel-S)-2,6-dioxopiperidin-3-yl)-1-oxoisoindolin-4-yl)piperidin-4-yl)propyl)-2-fluoro-N-(2-((R)-1-methylpyrrolidin-2-yl)-1H-pyrrolo[3,2-c]pyridin-6-yl)benzamide], at MLLT1, the “MLLT1% Degradation @ 0.01 μM” value is “A (Category A: A ≥ 75% degradation)”, the “MLLT1% Degradation @ 0.1 μM” value is on record as “A (Category A: A ≥ 75% degradation)” and the “MLLT1% Degradation @ 1 μM” value is “A (Category A: A ≥ 75% degradation)”. In the experiment on MV4-11 cells, the IC50 is not above 0.1 µM.

`CN1CCC[C@@H]1c1cc2cnc(NC(=O)c3ccc(N4CCC(OC5CCN(c6cccc7c6C(=O)N(C6CCC(=O)NC6=O)C7=O)CC5)CC4)nc3)cc2[nH]1` (stereo partly drawn) [Example 148, 6-(4-((1-(2-(2,6-dioxopiperidin-3-yl)-1,3-dioxoisoindolin-4-yl)piperidin-4-yl)oxy)piperidin-1-yl)-N-(2-((R)-1-methylpyrrolidin-2-yl)-1H-pyrrolo[3,2-c]pyridin-6-yl)nicotinamide]: at MLLT1, the “MLLT1% Degradation @ 0.01 μM” value is reported as “A (Category A: A ≥ 75% degradation)”, the “MLLT1% Degradation @ 0.1 μM” value is “A (Category A: A ≥ 75% degradation)” and the “MLLT1% Degradation @ 1 μM” value is given as “A (Category A: A ≥ 75% degradation)”. In the experiment with MV4-11 cells, the IC50 was not above 0.1 µM.

For orientation: IC50 means the point on the concentration scale where inhibition reaches its midpoint.

(Values after patent US20260191968A1, “PROTAC DEGRADERS OF MLLT1 AND/OR MLLT3” (DARK BLUE THERAPEUTICS LTD, priority 2024, published 2026).)
